This is an account of results in patent publication US20210007350A1, “USE OF A FUNGICIDAL COMPOSITION AS TREATMENT FOR POWDERY MILDEW” (DESARROLLO AGRICOLA Y MINERO, S.A., priority 2017, published 2021).

The experiment concerns powdery mildew (Sphaerotheca macularis). Put plainly: Control of powdery mildew in greenhouse strawberry cultivation (field efficacy trial). It counts as in vivo. The settings on record: Myclobutanil 20 g/l, dose 30 ml/hl. As for the experimental part:
To reflect the efficacy of the invention presented in this description, comparative studies were performed in commercial conditions. Thus, commercial application of the present fungicidal composition is carried out by ground spraying with manual sprayers, motor pumps, or other similar means. The invention is further characterised by a specific use with a product application dose of between 0.05 l/hl and 0.5 l/hl, and preferably between 0.2 l/hl and 0.3 l/hl of the composition described herein.
The conditions of the application solution will be those normally used for the crops described. The following examples show the spraying case.
Example 1: Application of the Fungicidal Composition for the Control of Powdery Mildew (Sphaerotheca macularis) in Strawberries
The aim of the protocol was to evaluate the effect of the fungicidal composition applied in different doses for the control of powdery mildew (Sphaerotheca macularis) in greenhouse strawberry cultivation and compare its efficacy against that of a standard chemical phytosanitary product such as myclobutanil. Location: Almeria (Spain). Variety: Benicia.
Untreated control specimen
Myclobutanil 20 g/l, dose 30 ml/hl
Fungicidal composition, dose 0.2l/hl
Fungicidal composition, dose 0.3l/hl
Number of applications: 4
Use of solution: 1000 l/ha.
Parameters evaluated: Efficacy.
Efficacy data were taken at the following times.
T0: 0, before first application.
T1: 10 days after the first application and just before the second application.
T2: 9 days after the second application and just before the third application.
T3: 9 days after the third application and just before the fourth application
T4: 7 days after the fourth application.

`CCCCC(C#N)(Cn1cncn1)c1ccc(Cl)cc1` (centres unmarked) [Myclobutanil, myclobutanil]: the “efficacy % (T0)” value (T0: before first application, strawberry var. Benicia, greenhouse) turned out to be 0%. Moreover, the “efficacy % (T1)” value (T1: 10 days after the first application) came out at 92.4%. Besides, the “efficacy % (T2)” value (T2: 9 days after the second application) was 97.0%. In addition, the “efficacy % (T3)” value (T3: 9 days after the third application) was 95.8%. For the same molecule, under “T4: 7 days after the fourth application”, the “efficacy % (T4)” value stood at 98.3%.
